Patent US20110160303A1, “N-ALKYLCARBONYL-AMINO ACID ESTER AND N-ALKYLCARBONYL-AMINO LACTONE COMPOUNDS AND THEIR USE” (Edward Tak WEI, priority 2005, published 2011)
Entries after “also recorded” stand apart in the source; their conditions may differ.

Columns and labels:
skin above the upper lip = experiment: Cooling sensation on facial skin, ointment applied to skin above the upper lip; type: in vivo, human; design: key to refreshing cooling and absence of skin irritation or eye irritation (“perfect cool”): (*) denotes compounds with refreshing cooling and absence of skin irritation or eye irritation after facial skin or periorbital applications; a “perfect cool.”; conditions: for Duration of Action On-Off (minutes): On (onset): 40 mM (~1% wt/vol) Aquaphor ointment, 40 to 70 mg, time to reach 2 units of coolness; for Duration of Action On-Off (minutes): duration (offset minus onset) / Duration of Action On-Off (minutes): Off (offset): 40 mM Aquaphor ointment; for Duration of Action On-Off (minutes): Off (offset): time when coolness drops below 2 units
Excerpt: A reliable place for topical application is the skin above the upper lip (above the vermilion border of the lips), on the philtrum, lateral to the philtrum until the nasolabial folds, and on the lower nostrils (subnasale). This part of the face is known to be densely innervated with cold receptors, second only to the surfaces of the eyeball and anogenitalia. A second location is on or below the malar eminence (cheekbone). The skin above the cheekbone is thicker than above the lips, and therefore has a higher threshold for activation. At both loci, tingling, cool and cold sensations in the skin may be experienced and rated for time of onset and intensity.
The intensity of the subjective skin sensation is rated as 0, 1, 2 or 3 with: 0 as no change; 1 as slight coolness, cold, or tingling; 2 as clear-cut signal of coolness, cold, or tingling; and 3 as robust cooling or cold. The intervals for recording sensations are 5 to 10 minutes, until two successive zeroes are obtained. The results (shown in FIGS. 1 and 2) are averaged values of 4 to 6 separate trials in the same individual. The data are plotted using SigmaPlot® (Systat Software, Point Richmond Calif.) and a smoothing function with a negative exponential was used for analysis and statistical fit of the results. Confirmatory trials of cooling action of the long-acting NACE compounds were obtained in 2 to 4 individuals but not quantified for some because of the large number of chemicals that were evaluated.
(§1) The onset of drug action is taken as the time to reach 2 units of coolness intensity, and offset of drug action is the time when coolness intensity drops below 2, after previously surpassing 2 units. The duration of cooling action is defined as the offset time minus the onset time. […] The quality of the sensation is noted, for example, as pure refreshing coolness, or if the sensation is accompanied by irritation (stinging or burning). The quality of the sensation is not rated for intensity.
For bioassay on the skin, approximately 30 mg was stirred and dissolved in 3 g of warm liquid Aquaphor® ointment to a yield a 40 mM (˜1% wt/vol) ointment. The exact amount was adjusted so that the molar equivalent was about 35 to 40 mM. After cooling, 40 to 70 mg of the solid ointment was placed on the tip of a plastic stick and applied to the skin above the upper lip, on the philtrum, and lateral to the philtrum, up to the nasolabial folds, of test subjects and the onset and duration of cooling sensations noted.
The intensity of the subjective skin sensation was rated as 0, 1, 2 or 3 with: 0 as no change; 1 as slight coolness, cold, or tingling; 2 as clear signal of coolness, cold, or tingling; and 3 as robust cooling or cold. The intervals for recording sensations were 5 to 10 minutes, until two successive zeroes were obtained. The results (shown in FIGS. 1 and 2) are averaged values of 4 to 6 separate trials in the same individual. The data are plotted using SigmaPlot® (Systat Software, Point Richmond, Calif., USA) and a smoothing function with a negative exponential was used for analysis and statistical fit of the results.
as §1, with “was” for “is”, “was also noted: such” for “is noted, for example,”
Test compounds were singly applied to the skin above the upper lips at a 40 to 70 mg dose of a 1% wt/vol ointment.

oral cavity = experiment: Oral cavity test, substance placed on dorsal surface of the tongue; type: in vivo, human; conditions: dose of 1 to 2 mg, normal subjects
Experimental: The subject is instructed to close and hold the substance in the mouth for at least 10 seconds and not to swallow. The description of sensations is then recorded at 5 minute intervals.
The compounds of Formula (1) and (2) are white crystalline solids at room temperatures. These compounds were tested as such, or mixed 1:1 with powdered or granulated sugar. The test substances were applied at 1 to 5 mg on the mid-point of the dorsal surface of the tongue using a metal spatula or a plastic applicator. After depositing the test substance on the tongue, the subject was instructed to keep the mouth closed and allow the fluids of the mouth to inter-mix with the test substance and to distribute it to the back of the mouth (oropharynx). The presence and duration of subjective sensations from the mouth was then noted.
In normal subjects, the effects of the D-Ala methyl and ethyl ester compounds falling within Formula (1) ((R)-2-[((1R,2S,5R)-2-isopropyl-5-methyl-cyclohexanecarbonyl)-amino]-propionic acid methyl or ethyl ester)) were examined. Three doses of 1, 2 and 4 mg per application were examined and compared to a similar dose of the L-Ala methyl or ester analog ((S)-2-[((1R,2S,5R)-2-isopropyl-5-methyl-cyclohexanecarbonyl)-amino]-propionic acid methyl or ethyl ester). At the 2 or 4 mg dose, all compounds produced pleasant and robust cooling sensations on the tongue, extending down to the back of throat, and lasted for about 30 minutes and longer. The onset effect was usually within 30 seconds of application.

face = experiment: Study 3: towelette used to wipe the face; type: in vivo, human
Experimental: 2-Isopropyl-5-methyl-cyclohexanecarbonyl D-alanine methyl ester was dissolved in warm 10% propylene-glycol/90% distilled water solution to give a concentration of either 0.1 or 0.5% wt/vol (1 or 5 mg/mL). Six to seven milliliters of these solutions were then applied with a pipette onto a paper napkin (Luncheon Napkins, Kirkland Signature brand from Costco, Inc.) The napkin was 1-ply with a 30.4×29.5 cm dimension. Each napkin was then hermetically sealed in a plastic envelope (Foodsaver by Tilia). On two separate occasions involving golfing trips to Los Angeles, Calif., USA, where air temperatures exceeded […] (90° F.), these towelettes were used to wipe the face. Pleasant cooling sensations were obtained that lasted for about 10 minute for the 0.1% concentration towelette and about 60 minutes for the 0.5% towelette.

periorbital area = experiment: Study 4: 1% ointment applied bilaterally to the periorbital area; type: in vivo, human
Excerpt: A 1% preparation of 2-isopropyl-5-methyl-cyclohexanecarbonyl D-alanine methyl ester in Aquaphor® ointment was applied bilaterally to the periorbital area of four individuals. […] This alerting effect lasted for about one hour. This experiment was then repeated three days later in the evening with the same individuals whose occupations required daylong activities before a computer screen. Again, application of the ointment about the periorbital area was reported to relieve fatigue, enhance visual acuity, and to increase attention span and focus. Sensations of refreshment and improved mood were also noted.

[1] = test system: irritated skin (acneiform dermatitis treated with Tazorac); experiment: Study 5: ointment on skin irritated by Tazorac; type: in vivo, human; conditions: 1.5% in Aquaphor
Experimental: A person was treated with Tazorac® (tazarotene topical gel) for acneiform dermatitis on their cheeks. After using these medications for several days, they noted redness, itching, and uncomfortable burning sensations on the skin where these medications had been placed. A 1.5% preparation of 2-isopropyl-5-methyl-cyclohexanecarbonyl α-alanine methyl ester in Aquaphor® ointment was then applied to the sites of irritation. Sensations of coolness on the skin were noted within 5 minutes and lasting for an average of 30 minutes. The discomfort of the irritated skin was abated within five minutes and the subject felt better.

tongue = experiment: Threshold for cooling on the tongue; type: in vivo, human; conditions: threshold for cooling on the tongue
Experimental: Watson et al. (U.S. Pat. No. 4,178,459) tested the properties of N-substituted p-menthane carboxamides on volunteers by putting filter paper (1×1 cm), impregnated with a known amount of compound, onto the dorsal surface of the tongue of the test subject. After 30 seconds, the subject was required to report presence or absence of a cooling effect. […] The average threshold of (−)-menthol for 6 subjects was 0.25 μg, but there was a 100-fold variation in individual sensitivity. As noted above, coolness signals detected from the dorsal surface of the tongue may be confounded by gustatory, olfactory, and other variables, as well as by dilution from saliva. The octanol/water partition coefficients (given in log P units) for a number of compounds were determined and are shown in Table 7, together with the threshold for cooling on the tongue tested at 40 mM. […] A longer duration of action was not precisely matched with log P values.

[2] = Octanol/water partition coefficient; type: physicochemical
Experimental: The octanol/water partition coefficients (given in log P units) for a number of compounds were determined and are shown in Table 7, together with the threshold for cooling on the tongue tested at 40 mM. […] A longer duration of action was not precisely matched with log P values.

TRP-M8 = molecular target: T1, TRP-M8 (Homo sapiens, UniProt Q7Z2W7); conditions: cited from earlier work
T1 construct: expressed in transfected cells
T1 sequence (Q7Z2W7 whole entry, species assumed): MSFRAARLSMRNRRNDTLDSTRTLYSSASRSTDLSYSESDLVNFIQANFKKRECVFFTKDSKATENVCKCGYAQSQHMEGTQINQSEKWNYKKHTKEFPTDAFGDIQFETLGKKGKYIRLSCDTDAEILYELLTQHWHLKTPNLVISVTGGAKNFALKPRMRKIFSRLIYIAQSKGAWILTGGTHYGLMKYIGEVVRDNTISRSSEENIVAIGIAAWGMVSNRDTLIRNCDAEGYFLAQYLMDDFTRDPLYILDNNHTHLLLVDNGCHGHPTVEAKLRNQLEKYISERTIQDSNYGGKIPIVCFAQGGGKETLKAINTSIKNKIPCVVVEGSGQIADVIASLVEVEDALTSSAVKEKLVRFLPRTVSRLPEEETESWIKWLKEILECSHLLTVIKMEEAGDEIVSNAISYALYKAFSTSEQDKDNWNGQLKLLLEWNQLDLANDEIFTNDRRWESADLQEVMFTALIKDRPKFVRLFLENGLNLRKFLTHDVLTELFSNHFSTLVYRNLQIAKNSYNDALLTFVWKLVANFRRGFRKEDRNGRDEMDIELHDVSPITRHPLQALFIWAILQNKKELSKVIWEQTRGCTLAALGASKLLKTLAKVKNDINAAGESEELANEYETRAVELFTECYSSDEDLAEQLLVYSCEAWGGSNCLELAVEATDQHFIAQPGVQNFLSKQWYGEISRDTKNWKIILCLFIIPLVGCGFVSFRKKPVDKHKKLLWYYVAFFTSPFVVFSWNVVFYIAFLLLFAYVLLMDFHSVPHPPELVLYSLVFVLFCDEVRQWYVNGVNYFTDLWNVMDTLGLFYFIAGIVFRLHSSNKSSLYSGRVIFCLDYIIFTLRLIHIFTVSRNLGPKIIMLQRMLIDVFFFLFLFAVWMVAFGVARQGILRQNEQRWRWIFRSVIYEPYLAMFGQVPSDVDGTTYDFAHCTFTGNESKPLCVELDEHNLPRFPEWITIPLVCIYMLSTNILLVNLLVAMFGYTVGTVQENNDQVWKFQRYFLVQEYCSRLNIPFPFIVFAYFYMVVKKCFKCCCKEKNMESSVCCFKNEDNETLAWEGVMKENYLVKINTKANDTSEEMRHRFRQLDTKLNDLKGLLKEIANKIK

asthma = experiment: Study 10: adult-onset asthma, throat irritation and cough; type: in vivo, human
Experimental: A person had adult-onset asthma for 20 years. Triggers for attacks were tobacco smoke, dust, and changes in air temperature. They used Foradil® (formoterol fumarate) and Asmanex® (mometasone fuorate) twice a day to control their asthma, and monitored their pulmonary function with a portable device for measuring peak expiratory flow. They had daily episodes of both productive and non-productive cough. In 5 trials, when they felt throat irritation and a desire to cough, placement of 1 to 3 mg of (R)-2-[((1R,2S,5R)-2-isopropyl-5-methyl-cyclohexanecarbonyl)-amino]-propionic acid ethyl ester) provided rapid relief and was described as soothing and removed “tightness” in the chest. Peak expiratory flow improved from 320 L/min to 370 L/min. In 3 episodes where the test substance was administered in the midst of a productive cough spell, no significant effects were observed and the subject said that the applied compound had been expectorated. The subjective response to the long-acting NACE compound was definitely favourable. The subject remarked that the best time to use the NACE compound was after inhaling the crystalline Foradil® because this inhaled drug irritated their throat. Menthol lozenges were not effective for their airway discomfort because they only had mild anti-irritant actions and the sugar content of the lozenges interfered with their appetite for food.

[3] = 1% in Aquaphor, periorbital, four individuals

COC(=O)[C@@H](C)NC(=O)[C@@H]1C[C@H](C)CC[C@H]1C(C)C [D-Ala Me Ester, (R)-2-[((1R,2S,5R)-2-isopropyl-5-methyl-cyclohexanecarbonyl)-amino]-propionic acid methyl ester]
Duration of Skin Cooling (skin above the upper lip; 40 mM (1% wt/vol) ointment, skin above upper lip): 1.9 h | Duration of Action On-Off (minutes): On (onset) (skin above the upper lip; skin above upper lip): 1 min | Duration of Action On-Off (minutes): duration (offset minus onset) (skin above the upper lip; skin above upper lip): 114 min | Duration of Action On-Off (minutes): Off (offset) (skin above the upper lip; skin above upper lip): 115 min | refreshing cooling and absence of skin irritation or eye irritation (“perfect cool”) (skin above the upper lip; after facial skin or periorbital applications): D-Ala Me Ester (*) | duration of cooling sensations on the tongue (oral cavity): about 30 minutes | duration of pleasant cooling sensations, 0.1% towelette (face; 0.1% wt/vol in 10% propylene-glycol/90% water on napkin, face): about 10 minute | eye irritation (face; 0.1 or 0.5% towelette): No eye irritation | duration of pleasant cooling sensations, 0.5% towelette (face; 0.5% wt/vol in 10% propylene-glycol/90% water on napkin, face): about 60 minutes | duration of alerting effect (periorbital area; 1% in Aquaphor, periorbital): about one | duration of coolness on the skin (average) (periorbital area; [3]): 30 min | onset of coolness on the skin (periorbital area; [3]): ≤ 1 min | irritation of skin and eye surfaces (periorbital area; periorbital application): No irritation of the eye surfaces | duration of coolness on irritated skin (average) [1]: 30 min | time until discomfort of the irritated skin was abated [1]: five | onset of sensations of coolness on irritated skin ([1]; one subject): ≤ 5 min

COc1ccc(NC(=O)C2CC(C)CCC2C(C)C)cc1 (stereo not drawn) [WS-12, N-p-methoxyphenyl-p-menthane-carboxamide, reference compound]
Duration of Action On-Off (minutes): On (onset) (skin above the upper lip; skin above upper lip): 13 min | Duration of Action On-Off (minutes): duration (offset minus onset) (skin above the upper lip; skin above upper lip): 25 min | Duration of Action On-Off (minutes): Off (offset) (skin above the upper lip; skin above upper lip): 38 min | Threshold tongue (tongue): 0.2 µg | logP [2]: 5.3 | potency at TRP-M8 (TRP-M8): more potent at TRP-M8 than WS-5; also recorded: potent

CCOC(=O)[C@@H](C)NC(=O)[C@@H]1C[C@H](C)CC[C@H]1C(C)C [(R)-2-[((1R,2S,5R)-2-isopropyl-5-methyl-cyclohexanecarbonyl)-amino]-propionic acid ethyl ester]
Peak expiratory flow (asthma; 1 to 3 mg, improved from 320 L/min): 370 L/min | relief of throat irritation, desire to cough and airway discomfort (asthma; asthmatic): rapid relief
